Results published in patent US20180008592A1, “TREATMENT OF UREMIC PRURITUS” (TREVI THERAPEUTICS, INC., priority 2016, published 2018).

Tests used:
Type in all cases: in vivo, human
[1] = test system: renally impaired patients on hemodialysis with moderate or severe uremic pruritus; test: Same trial: safety and tolerability (adverse events, discontinuation)
Description: The term “adverse event” (AE) as used herein is defined as any untoward medical occurrence in a clinical investigation patient reported on or after the first screening date. […] An AE can therefore be any unfavorable and unintended sign (including an abnormal laboratory finding), symptom whether or not related to the medicinal (investigational) product, or disease temporally associated with the use of a medicinal (investigational) product. Typical adverse events include nausea, vomiting, somnolence, dizziness and hallucination. In accordance with the present invention, the rate of adverse events after the treatment is substantially the same as the rate of adverse events after administering a placebo for the same period of time.
This clinical study was a parallel, double-blind, placebo-controlled trial in which renally impaired patients on hemodialysis with moderate or severe uremic pruritus were randomized in a 1:1:1 ratio to nalbuphine ER tablets to a target dose of 120 mg BID or 60 mg BID, or matching placebo tablets BID. Medications taken for treatment of pruritus (“antipruritic medications”) were not prohibited, but their use was recorded throughout the study. Use of skin emollients was also not restricted. A placebo comparator was chosen because there are no approved treatments for uremic pruritus in the United States or Europe or an established standard of care that could serve as an active control.
The primary objectives were to evaluate the effects on itching intensity using a Worst Itching Intensity Numerical Rating Scale (NRS, 0 [no itching]-10 [worst possible itching]) (FIG. 7) as well as safety and tolerability. The study was conducted at 46 United States investigative sites and 6 investigative sites in Romania and Poland. The Sponsor oversaw the conduct of the trial and an independent unblinded Data Safety Monitoring Board reviewed safety data approximately once a month during the conduct of the trial.
(§1) In the first 2 weeks of treatment, patients were blindly force-titrated to their assigned target dose, with the patients in the active arms reaching a dose of 60 mg BID (NAL 60) after the first week and, for those in the high dose group, to 120 mg BID (NAL 120) after the second week. Study drug was administered in blister cards containing the labeled morning and evening doses for each day of the week. Subsequently, patients continued stable doses of the study drug for an additional 6 weeks and were then washed off study drug and followed for another 2 weeks for itching intensity and safety. No down-titration was permitted during the study, although patients who missed 6 or more consecutive doses during the Stable Dose Period (Weeks 3-8) could, with the Medical Monitor's approval, re-start treatment with blinded re-titration of just the morning or evening dose for 3 days before returning to the original dose. Patients were allowed to remain on their background antipruritic medications such as antihistamines and the use of these medications and indication for treatment was collected.

[2] = test system: renally impaired patients on hemodialysis with moderate or severe uremic pruritus; test: Same trial: Skindex-10 (itch-related quality of life); details: for Skindex-10 Disease Domain (bothersomeness of itching) [0-18], change from Baseline to the Evaluation Period, mean (SD) / Skindex-10 Mood/emotional distress domain (0-24), change from Baseline to the Evaluation Period, mean (SD) / Skindex-10 Social Functioning Domain [0-18], change from Baseline to the Evaluation Period, mean (SD) / Skindex-10 Total Score [0 (best) to 60 (worst)], change from Baseline to the Evaluation Period, mean (SD): 60 mg BID; for Skindex-10 Mood/emotional distress domain (0-24), change from Baseline to the Evaluation Period, mean / Skindex-10 Social Functioning Domain [0-18], change from Baseline to the Evaluation Period, mean / Skindex-10 Total Score [0 (best) to 60 (worst)], change from Baseline to the Evaluation Period, mean / Skindex-10 Disease Domain (bothersomeness of itching) [0-18], change from Baseline to the Evaluation Period, mean: 120 mg BID
Description: FIG. 8 provides a numerical scale (range, 0-6; anchors at 0 “never bothered” and 6 “always bothered”) (top) used for answering 10 questions used in the assessment of itching-related quality of life (bottom) (Skindex-10).
(§2) The primary endpoint was the change from Baseline to the Evaluation Period (Study weeks 7 and 8) in the modified intent-to-treat population. Quality of life-related secondary endpoints included change from Day 1 to the Evaluation Period in itching-related quality of life (using the Skindex-10 (FIG. 8)) and itching-related sleep disruption (using the Itch Medical Outcomes Study [Itch MOS] (FIG. 9), SLP-9). The Hospital Anxiety and Depression Score (HADS) used as a general measure of anxiety and depression. All patient-reported outcomes measures were selected based on their prior validation in uremic pruritus patients specifically or in the dialysis population more generally.
(§3) The primary and quality of life secondary endpoint analyses used a mixed model repeated measures ANCOVA with the main effects of treatment and site and baseline worst itch NRS score as the covariate. The model included time (i.e. Visit) as a factor variable and treatment*time (with placebo as the reference category) with an unstructured covariance structure for repeated measures. Data from all post-baseline visits were used to fit the model. For the primary endpoint, the baseline value was defined as the mean of worst itch daytime and nighttime NRS scores used for satisfying the protocol inclusion criterion #5 (mean worst itching NRS≧4.5 based on a total of 3 daytime and 3 nighttime measurements from 3 dialysis visits). For the secondary endpoints, the baseline value was based on a measurement taken on Study Day 1, prior to randomization. A pre-specified step-down procedure was used. The first comparison was of nalbuphine 120 mg BID dose vs. placebo. If the first comparison was significant at the p<0.05 level, then the comparison between the nalbuphine 60 mg BID dose vs. placebo would be conducted. Patients with a 15% or greater response in worst itch NRS were analyzed using a Cochran-Mantel-Haenszel (CMH) test. Analysis of the Itch MOS utilized the SLP-9 scoring algorithm.
as §1

[3] = test system: renally impaired patients on hemodialysis with moderate or severe uremic pruritus; test: Same trial: Hospital Anxiety and Depression Scale (HADS)
Description: as §2, §3
In the first 2 weeks of treatment, patients were blindly force-titrated to their assigned target dose, with the patients in the active arms reaching a dose of 60 mg BID (NAL 60) after the first week and, for those in the high dose group, to 120 mg BID (NAL 120) after the second week. Study drug was administered in blister cards containing the labeled morning and evening doses for each day of the week. Subsequently, patients continued stable doses of the study drug for an additional 6 weeks and were then washed off study drug and followed for another 2 weeks for itching intensity and safety. […]

[4] = test system: renally impaired patients on hemodialysis with moderate or severe uremic pruritus; test: Same trial: Itch MOS (itch-related sleep disruption); details: for patients with sleep latency (time to fall asleep) >30 minutes, Itch MOS: last treatment week (Week 8)
Description: FIG. 9 provides 12 questions and a numerical scale (range, 1-6; anchors at 1 “All of the time”; 2 “Most of the time”; 3 “A good bit of the time”; 4 “Some of the time”; 5 “A little of the time”; and 6 “None of the time”) used in assessing itching-related sleep disruption (Itch Medical Outcomes Study (MOS) Questions).
as §2, §3, §1

[5] = severe subgroup (Baseline NRS ≧ 7), N = 61
[6] = severe subgroup (Baseline NRS ≧ 7), N = 63

Q: Which results are given for `Cl.Oc1ccc2c3c1O[C@H]1[C@@H](O)CC[C@@]4(O)[C@@H](C2)N(CC2CCC2)CC[C@]314` [Nalbuphine, 17-(cyclobutylmethyl)-4,5α-epoxymorphinian-3,6α, 14-triol, hydrochloride]?
A: Adverse Events Leading to Discontinuation: Dizziness ([1]; 60 mg BID): 0.8%; Adverse Events Leading to Discontinuation: Hallucination ([1]; 60 mg BID): 1.6%; Adverse Events Leading to Discontinuation: Nausea ([1]; 60 mg BID): 9.5%; Adverse Events Leading to Discontinuation: Somnolence ([1]; 60 mg BID): 4.0%; Adverse Events Leading to Discontinuation: Vomiting ([1]; 60 mg BID): 9.5%; Adverse Events Leading to Discontinuation, number of patients ([1]; 60 mg BID, N = 128): 33; Adverse Events Leading to Discontinuation, percent of patients ([1]; 60 mg BID, N = 128): 26.2%; Serious Adverse Events (incidence) ([1]; 60 mg BID, N = 128, hydrochloride): 12.7%; Serious Adverse Events (incidence) ([1]; 60 mg BID, N = 128, listed as NAL 60, hydrochloride): 12.7%; Adverse Events Leading to Discontinuation: Dizziness ([1]; 120 mg BID): 2.5%; Adverse Events Leading to Discontinuation: Hallucination ([1]; 120 mg BID): 2.5%; Adverse Events Leading to Discontinuation: Nausea ([1]; 120 mg BID): 10.0%; Adverse Events Leading to Discontinuation: Somnolence ([1]; 120 mg BID): 1.7%; Adverse Events Leading to Discontinuation: Vomiting ([1]; 120 mg BID): 5.0%; Adverse Events Leading to Discontinuation, number of patients ([1]; 120 mg BID, N = 120): 27; Adverse Events Leading to Discontinuation, percent of patients ([1]; 120 mg BID, N = 120): 22.5%; Serious Adverse Events (incidence) ([1]; 120 mg BID, N = 120, hydrochloride): 6.7%; Serious Adverse Events (incidence) ([1]; 120 mg BID, N = 120, listed as NAL 120, hydrochloride): 6.7%; mood effects (adverse event reporting, Skindex-10 mood domain, HADS) ([1]; ER tablets, both doses): neutral in mood effects; safety profile ([1]; ER tablets, both doses): no adverse safety trends other than those expected from a centrally-acting opioid; Skindex-10 Disease Domain (bothersomeness of itching) [0-18], change from Baseline to the Evaluation Period, mean (SD) ([2]; N = 128): −5.3 (4.9); Skindex-10 Mood/emotional distress domain (0-24), change from Baseline to the Evaluation Period, mean (SD) ([2]; N = 128): −4.4 (5.0); Skindex-10 Social Functioning Domain [0-18], change from Baseline to the Evaluation Period, mean (SD) ([2]; N = 128): −4.2 (6.7); Skindex-10 Total Score [0 (best) to 60 (worst)], change from Baseline to the Evaluation Period, mean (SD) ([2]; N = 128): −13.8 (14.6); Skindex-10 Mood/emotional distress domain (0-24), change from Baseline to the Evaluation Period, mean ([2]; N = 120): −5.2; Skindex-10 Social Functioning Domain [0-18], change from Baseline to the Evaluation Period, mean ([2]; N = 120): −5.4; Skindex-10 Total Score [0 (best) to 60 (worst)], change from Baseline to the Evaluation Period, mean ([2]; N = 120): −17.0; Skindex-10 Disease Domain (bothersomeness of itching) [0-18], change from Baseline to the Evaluation Period, mean ([2]; N = 120, p < 0.1): −6.4; Skindex-10 Disease Domain (bothersomeness of itching) [0-18], change from Baseline to the Evaluation Period, mean (SD) [2, 5]: −6.2 (5.1); Skindex-10 Mood/emotional distress domain (0-24), change from Baseline to the Evaluation Period, mean (SD) [2, 5]: −5.1 (5.0); Skindex-10 Social Functioning Domain [0-18], change from Baseline to the Evaluation Period, mean (SD) [2, 5]: −5.1 (7.04); Skindex-10 Total Score [0 (best) to 60 (worst)], change from Baseline to the Evaluation Period, mean (SD) [2, 5]: −16.4 (15.1); Skindex-10 Social Functioning Domain [0-18], change from Baseline to the Evaluation Period, mean [2, 6]: −7.1; Skindex-10 Total Score [0 (best) to 60 (worst)], change from Baseline to the Evaluation Period, mean [2, 6]: −20.5; Skindex-10 Disease Domain (bothersomeness of itching) [0-18], change from Baseline to the Evaluation Period, mean ([2]; severe subgroup (Baseline NRS ≧ 7), N = 63, p < 0.05): −7.1; Skindex-10 Mood/emotional distress domain (0-24), change from Baseline to the Evaluation Period, mean ([2]; severe subgroup (Baseline NRS ≧ 7), N = 63, p < 0.1): −6.4; HADS Anxiety Subscale (0-21), change from Baseline to the Evaluation Period, mean (SD) ([3]; 60 mg BID, N = 128): −1.72 (3.0); HADS Depression Subscale (0-21), change from Baseline to the Evaluation Period, mean (SD) ([3]; 60 mg BID, N = 128): −0.68 (3.1); HADS Anxiety Subscale (0-21), change from Baseline to the Evaluation Period, mean ([3]; 120 mg BID, N = 120): −1.64; HADS Depression Subscale (0-21), change from Baseline to the Evaluation Period, mean ([3]; 120 mg BID, N = 120): −1.03; Itch MOS [0 (best) to 60 (worst)], change from Baseline to the Evaluation Period, mean (SD) ([4]; 60 mg BID, N = 128): −13.9 (17.6); patients with sleep latency (time to fall asleep) >30 minutes, Itch MOS ([4]; 60 mg BID, 68.7% at baseline): 35.9%; Itch MOS [0 (best) to 60 (worst)], change from Baseline to the Evaluation Period, mean ([4]; 120 mg BID, N = 120, p < 0.1): −16.0; patients with sleep latency (time to fall asleep) >30 minutes, Itch MOS ([4]; 120 mg BID, 67.5% at baseline): 25.0%; Itch MOS (Itch-Related Sleep Disruption) [0 (best) to 60 (worst)], change from Baseline to the Evaluation Period, mean (SD) ([4]; severe subgroup (Baseline NRS ≧ 7), 60 mg BID, N = 61): −15.0 (17.7); Itch MOS (Itch-Related Sleep Disruption) [0 (best) to 60 (worst)], change from Baseline to the Evaluation Period, mean ([4]; severe subgroup (Baseline NRS ≧ 7), 120 mg BID, N = 63, p < 0.01): −21.6; Sleep disruption due to itching ([4]; severe subgroup (Baseline NRS ≧7.0), 120 mg BID, p=0.007): improved significantly relative to placebo
